Like-named read-outs stand apart in the source and are kept apart here.
Legend:
[1] = biological target: T1, acetylcholinesterase (AChE) (Homo sapiens, UniProt P22303); experiment: biochemical; conditions: for IC50: mean ± SD, n = 3, each in triplicate
T1 construct: purchased bioassay systems, USA IACE-100
Experimental: (§1) The in vitro AChE and BuChE inhibitory effects and selectivity of nine TCM compounds were evaluated using the QuantiChrom^TM AChE inhibitor screening kit (IACE-100, bioassay systems, USA) for AChE inhibition and the BuChE activity kit (catalog # MBS846801, MyBiosource, CA, USA) for BuChE inhibition. […] The QuantiChrom^TM kit was used to assess the activity of AChE and BuChE by recording enzymatic activity at different concentrations of the test compounds and comparing it to activity without inhibitors, followed by plotting dose-response curves. The experimental data were fitted by nonlinear regression analysis to yield IC50 values. The selectivity of the compounds for AChE relative to BuChE was determined by calculating the Selectivity Index (SI) using the formula BuChE IC50 values are divided by AChE IC50 values to obtain SI.

[2] = biological target: T2, butyrylcholinesterase (BuChE) (Homo sapiens, UniProt P06276); experiment: biochemical
T2 construct: purchased MyBiosource, CA, and USA MBS846801
Experimental: as §1

[3] = system: lead acetate-induced AD (LA-AD) rats; experiment: Lipid peroxidation (MDA) in brain tissue of LA-AD rats; type: in vivo, rat; conditions: 1 mg/kg IP for 15 days, compared to the LA-AD group
Experimental: The rats were acclimatized to the laboratory environment for one week prior to the experiment. During this period, they were kept in standard polypropylene cages for rodents under controlled conditions, with a room temperature of 22°C, relative humidity of 50%, and a 12-hour light-dark cycle, with lights on from 06:00 to 18:00. […] Routine monitoring of housing conditions was conducted to ensure compliance with ethical standards. To establish an AD model, the rats underwent intraperitoneal (IP) administration with lead acetate-induced AD (LA-AD, 50 mg/kg) for 15 days to mimic the neurodegenerative features of AD.
Following 28 days of exposure, the rats were euthanized by cervical decapitation, and their brains were removed to minimize tissue damage. The brains were dissected into specific regions, including the cerebellum and cerebral cortex, for deeper analysis. The cerebellum, cerebral cortex, and hippocampus were isolated in sodium chloride solution and washed with ice-cold solution. The tissues were then homogenized, processed for biochemical analysis, and submerged in ice-cold 0.1 M phosphate buffer. […]
The reaction mixtures were then transferred into centrifuge tubes and centrifuged at 3800 × g for 25 minutes. […] After cooling, the absorbance of the samples was measured at 530 nm using a spectrophotometer (BIOBASE BK-UV1800PC, China).

[4] = system: lead acetate-induced AD (LA-AD) rats; experiment: Glutathione (GSH) content in brain tissue of LA-AD rats; type: in vivo, rat; conditions: 1 mg/kg IP for 15 days, compared to the LA-AD group
Experimental: Fifty male Wistar rats (n = 50) were obtained from a certified animal facility, Shenzhen Bay Laboratory (SZBL) Laboratory Animal Platform, China. The rats were acclimatized to the laboratory environment for one week prior to the experiment. During this period, they were kept in standard polypropylene cages for rodents under controlled conditions, with a room temperature of 22°C, relative humidity of 50%, and a 12-hour light-dark cycle, with lights on from 06:00 to 18:00. […] Routine monitoring of housing conditions was conducted to ensure compliance with ethical standards. To establish an AD model, the rats underwent intraperitoneal (IP) administration with lead acetate-induced AD (LA-AD, 50 mg/kg) for 15 days to mimic the neurodegenerative features of AD.
A 12-hour fasting period was imposed on the rats immediately after the final dose of treatment to minimize the effect of recent food intake on blood parameters. […] Following 28 days of exposure, the rats were euthanized by cervical decapitation, and their brains were removed to minimize tissue damage. The brains were dissected into specific regions, including the cerebellum and cerebral cortex, for deeper analysis. […]
Glutathione (GSH) levels in cerebral tissue were quantified by extracting proteins from the homogenate. […]

[5] = biological target: T3, Acetylcholinesterase (AChE) (Rattus norvegicus, UniProt P37136); experiment: AChE levels in LA-AD rats; type: in vivo; conditions: 1 mg/kg IP for 15 days
T3 construct: The tissues were then homogenized, processed for biochemical analysis; from tissue; host or cells: brain of male Wistar rats (cerebellum, cerebral cortex, hippocampus homogenates)
Experimental: (§2) Fifty male Wistar rats (n = 50) were obtained from a certified animal facility, Shenzhen Bay Laboratory (SZBL) Laboratory Animal Platform, China. The rats were acclimatized to the laboratory environment for one week prior to the experiment. During this period, they were kept in standard polypropylene cages for rodents under controlled conditions, with a room temperature of 22°C, relative humidity of 50%, and a 12-hour light-dark cycle, with lights on from 06:00 to 18:00. The rats had ad libitum access to a standard rodent diet and filtered water to ensure optimal health and hydration. Routine monitoring of housing conditions was conducted to ensure compliance with ethical standards. To establish an AD model, the rats underwent intraperitoneal (IP) administration with lead acetate-induced AD (LA-AD, 50 mg/kg) for 15 days to mimic the neurodegenerative features of AD.
Following AD induction, the rats were randomly divided into five groups: (1) Group I (control): DMSO contained in drinking water at a 5% concentration, without neurotoxic effects, in normal rats; (2) group II (LA-AD): The LA-AD rats for 15 days; […]. […]. […]
(§3) A 12-hour fasting period was imposed on the rats immediately after the final dose of treatment to minimize the effect of recent food intake on blood parameters. […] The toxicological effects of the treatment were assessed through analysis of blood lead concentrations. […]

[6] = biological target: T4, butyrylcholinesterase (BuChE) (Rattus norvegicus, UniProt Q9JKC1); experiment: BuChE levels in LA-AD rats; type: in vivo; conditions: 1 mg/kg IP for 15 days
T4 construct: The tissues were then homogenized, processed for biochemical analysis; from tissue; host or cells: brain of male Wistar rats (cerebellum, cerebral cortex, hippocampus homogenates)
Experimental: as §2
Following AD induction, the rats were randomly divided into five groups: (1) Group I (control): DMSO contained in drinking water at a 5% concentration, without neurotoxic effects, in normal rats; (2) group II (LA-AD): The LA-AD rats for 15 days; […]. […]
as §3

[7] = BuChE IC50 divided by AChE IC50
[8] = mean ± SD, n = 3, each in triplicate, read-out: IC50 BuChE

T2 sequence (P06276 29-602): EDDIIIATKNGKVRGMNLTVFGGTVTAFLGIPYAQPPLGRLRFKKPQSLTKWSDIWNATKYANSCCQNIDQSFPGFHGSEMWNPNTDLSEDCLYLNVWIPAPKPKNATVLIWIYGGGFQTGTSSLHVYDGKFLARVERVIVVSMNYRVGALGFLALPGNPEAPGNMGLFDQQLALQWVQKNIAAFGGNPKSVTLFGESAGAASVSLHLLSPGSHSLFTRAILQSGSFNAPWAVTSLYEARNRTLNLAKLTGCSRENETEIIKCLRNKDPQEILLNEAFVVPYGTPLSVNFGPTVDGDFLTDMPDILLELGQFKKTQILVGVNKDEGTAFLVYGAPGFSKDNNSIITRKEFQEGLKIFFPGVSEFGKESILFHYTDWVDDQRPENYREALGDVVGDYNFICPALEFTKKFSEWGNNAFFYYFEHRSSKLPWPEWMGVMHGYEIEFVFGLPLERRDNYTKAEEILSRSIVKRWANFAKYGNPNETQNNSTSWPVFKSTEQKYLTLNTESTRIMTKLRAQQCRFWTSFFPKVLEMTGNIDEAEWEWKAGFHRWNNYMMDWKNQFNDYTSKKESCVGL
T1 sequence (P22303 32-614): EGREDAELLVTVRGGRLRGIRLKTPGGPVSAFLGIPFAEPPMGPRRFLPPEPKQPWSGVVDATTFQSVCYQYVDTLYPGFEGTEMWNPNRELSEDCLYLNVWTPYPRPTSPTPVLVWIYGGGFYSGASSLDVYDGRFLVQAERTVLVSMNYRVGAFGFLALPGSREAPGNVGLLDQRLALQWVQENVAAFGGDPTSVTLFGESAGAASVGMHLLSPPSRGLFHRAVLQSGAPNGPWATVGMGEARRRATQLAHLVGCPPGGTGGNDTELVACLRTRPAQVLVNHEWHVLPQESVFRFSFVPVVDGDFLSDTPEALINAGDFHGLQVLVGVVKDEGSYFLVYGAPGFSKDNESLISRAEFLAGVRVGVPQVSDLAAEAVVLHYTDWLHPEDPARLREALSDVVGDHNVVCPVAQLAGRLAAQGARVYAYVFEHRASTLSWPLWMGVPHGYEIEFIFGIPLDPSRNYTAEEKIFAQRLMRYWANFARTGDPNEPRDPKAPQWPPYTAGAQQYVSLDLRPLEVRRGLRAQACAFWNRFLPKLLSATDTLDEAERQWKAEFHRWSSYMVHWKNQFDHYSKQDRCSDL
T3 sequence (P37136 32-614): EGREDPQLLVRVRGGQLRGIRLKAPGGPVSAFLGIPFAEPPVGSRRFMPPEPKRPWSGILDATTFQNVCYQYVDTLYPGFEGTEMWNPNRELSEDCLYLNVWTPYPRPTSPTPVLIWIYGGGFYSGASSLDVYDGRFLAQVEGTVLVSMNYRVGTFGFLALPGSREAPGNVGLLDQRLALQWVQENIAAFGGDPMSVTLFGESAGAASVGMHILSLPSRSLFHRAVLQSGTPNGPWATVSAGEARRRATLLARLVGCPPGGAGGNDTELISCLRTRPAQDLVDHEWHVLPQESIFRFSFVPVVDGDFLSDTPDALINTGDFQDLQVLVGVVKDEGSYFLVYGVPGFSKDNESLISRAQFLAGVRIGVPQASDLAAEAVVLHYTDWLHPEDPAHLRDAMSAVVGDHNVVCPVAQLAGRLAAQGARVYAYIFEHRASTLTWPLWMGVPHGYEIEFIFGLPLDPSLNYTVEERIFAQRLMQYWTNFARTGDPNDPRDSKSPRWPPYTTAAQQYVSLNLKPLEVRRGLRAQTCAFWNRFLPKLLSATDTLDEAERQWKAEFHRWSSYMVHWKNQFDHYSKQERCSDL
T4 sequence (Q9JKC1 24-597): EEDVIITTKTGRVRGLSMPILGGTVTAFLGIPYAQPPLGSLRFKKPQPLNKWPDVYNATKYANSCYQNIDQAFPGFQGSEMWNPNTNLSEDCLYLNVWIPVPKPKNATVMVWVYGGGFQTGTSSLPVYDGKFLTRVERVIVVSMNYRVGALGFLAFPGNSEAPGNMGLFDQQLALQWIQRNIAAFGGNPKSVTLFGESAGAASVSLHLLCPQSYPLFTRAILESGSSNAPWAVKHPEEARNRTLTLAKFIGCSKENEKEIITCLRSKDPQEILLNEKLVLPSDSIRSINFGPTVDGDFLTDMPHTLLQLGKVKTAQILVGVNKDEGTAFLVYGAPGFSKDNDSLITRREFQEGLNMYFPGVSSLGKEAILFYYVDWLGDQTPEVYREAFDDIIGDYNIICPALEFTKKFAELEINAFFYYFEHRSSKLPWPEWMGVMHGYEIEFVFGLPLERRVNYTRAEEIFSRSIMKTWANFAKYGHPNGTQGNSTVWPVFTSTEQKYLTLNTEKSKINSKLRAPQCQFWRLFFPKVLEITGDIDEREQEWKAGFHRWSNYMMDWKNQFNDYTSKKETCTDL

`CC1(C)C=Cc2c(cc3occ(-c4ccc(O)cc4)c(=O)c3c2O)O1` [Alpinumisoflavone] was tested, and the “BuChE/AChE Selectivity” value [1, 7] was 0.32, the IC50 [1] was 90.3 ± 4.13 nM and the IC50 [2, 8] was 29.2 ± 1.4 nM.
With `C=C1CCC[C@]2(C)C[C@]3(O)OC(=O)C(C)=C3C[C@@H]12` [Atractylenolide III] the “BuChE/AChE Selectivity” value [1] was 0.38, the IC50 [1] was 83.1 ± 2.43 nM and the IC50 [2] was 31.3 ± 2.62 nM.
`Cc1cc(=O)cc2c3c1CC1C4OC(=O)C(CC2)(C(C)C4O)C31` (stereo not shown) [Hainanolidol] was tested, and the IC50 [1] was 44.3 nM, the IC50 [2, 8] was 12.3 nM and the “Malondialdehyde (MDA) levels” value [3] was “significantly reduced”. For the same molecule, the “Glutathione (GSH) levels” value [4] was “significantly increased”, the AChE activity [5] was “significantly decreased” and the BuChE activity [6] was “significantly decreased”.
Work on `COC(=O)C1=CO[C@@H](O[C@@H]2O[C@H](CO)[C@@H](O)[C@H](O)[C@H]2O)[C@@H]2[C@H](C)O[C@@H](O)C[C@H]12` [Morroniside] yielded an IC50 [1] of 41.6 ± 2.02 nM and an IC50 [2, 8] of 18.2 ± 2.12 nM.
`COc1cc2c3c(c1O)-c1c(ccc(OC)c1OC)C[C@@H]3NCC2` [Norcorydine] showed an IC50 [1] of 87.2 ± 4.12 nM and an IC50 [2] of 102 ± 3.13 nM.
`O=c1cc(-c2ccccc2)oc2c(O)c(O)cc(O)c12` [Norwogonin] was tested, and the IC50 [1] was 33.6 nM, the IC50 [2, 8] was 15.2 nM and the “Malondialdehyde (MDA) levels” value [3] was “significantly reduced”. The “Glutathione (GSH) levels” value [4] was “significantly increased”, the AChE activity [5] was “significantly decreased” and the BuChE activity [6] was “significantly decreased”.
`COc1cc2c(c(OC)c1OC)-c1c(cc3c(c1OC)OCO3)CC(C)C(C)C2` (stereo not shown) [Schisandrin B] gave an IC50 [1] of 90.4 ± 4.41 nM and an IC50 [2] of 82.3 ± 1.21 nM.
In the case of Asiaticoside, the “BuChE/AChE Selectivity” value [1, 7] is reported as 1.17.

— publication PMC12296705, “In Vivo and Bioinformatics Evaluation of Nine Traditional Chinese Medicine Compounds Targeting Acetylcholinesterase and Butyrylcholinesterase Enzymes in Alzheimer’s Disease” (Iranian Journal of Pharmaceutical Research : IJPR, 2025)
